“Also recorded” adds a separate entry of the source.
Molecular target: T1, plasminogen (Homo sapiens, UniProt P00747)
T1 construct: Glu-Pg, uPA, tPA, fibrinogen, and chromogenic substrate for Pn were purchased from Molecular Innovations (Novi, Mich.); purchased Molecular Innovations (Novi, Mich.)
Assay: LC-MS/MS identification of sites of MG adduction on plasminogen in vitro (Tables 1 and 12)
Conditions: 500 μM MG, 24 hr
Description: 10 μg Pg was incubated with MG (50-500 μM) in tris-buffered saline (TBS) for 24 hours at 37° C. Following modification, sample volumes were increased to 150 μL and placed in 5 kDa spin filters to reduce volume and remove excess MG from solution.
MG-modified (500 μM) and unmodified Pg control (same incubation conditions without MG) were added to 250 μL amount of rehydration buffer (6M urea, 2M thiourea, 2% CHAPS, 100 mM DTT, 0.5% 3-10 ampholytes) and 5 μL of 3-10 ampholytes (Bio-Rad). Sample rehydrated with a 13 cm 4-7 pH isoelectric focusing strip (GE Healthcare) overnight. Following rehydration, strips were placed in a Bio-Rad PROTEAN IEF Cell focusing instrument. Strips were first focused for 1 hour at 500 V, and then run at a maximum of 8,000V until the strips have reached a final total of 45,000 V/hrs at which point gels are held at 500V until removed. Focused strips were removed, reduced with DTT, cysteines carbamidomethylated with iodoacetamide, and run on a 4-20% gradient Criterion gel for 55 minutes at 200V. Gels were stained for stained according to manufacturer instructions with Imperial Blue Protein (ThermoScientific, Rockford, Ill.) and destained immediately with water. Gel bands were excised and trypsin digested.
Coomassie stained gel-bands were excised and washed in ddH2O for 15 min. H2O was removed and bands were incubated in 50/50 acetonitrile (ACN):ddH2O for 15 min. ACN:ddH2O was removed and bands were incubated with ACN for 5 min. ACN was removed and gels were incubated with 100 mM ammonium bicarbonate (AMBIC). An equal volume of ACN was added to make 1:1 solution and was incubated for 15 min. The ACN/AMBIC solution was removed and remaining gel bands were dried by speed-vacuum. 10 mM dithiothreitol (DTT) was added to each band and incubated at 56° C. for 45 min. DTT was removed and sample brought to room temperature (RT). Iodoacetamide (55 mM) was added to each sample and incubated at RT for 30 min in dark. Iodoacetamide was removed and 100 mM AMBIC was added and bands were incubated for 5 min. An equal volume of ACN was added to make a 1:1 solution and incubated for 15 min. The ACN/AMBIC solution was removed and bands were dried by speed-vacuum. Bands were digested with trypsin (400 ng/band) in 50 mM AMBIC and incubated on ice for 45 min. Tryptic solution was removed and 50 mM AMBIC was added to each band and incubated overnight at 37° C. to complete digestion. Digests were acidified using 10% trifluoroacetic acid (TFA). Supernatant was saved. Band was covered with TFA:ACN (0.1%:60%) and sonicated at 20° C. water bath for 30 min. Supernatant was combined with previous fraction. Sampled were speed vacuumed to a final volume of 10 μL prior to LC-MS/MS analysis on an LTQ Orbitrap Velos mass spectrometer as described below.
LC-MS/MS analysis of in-gel trypsin digested-proteins (Shevchenko et al., 1996) was carried out using a LTQ Orbitrap Velos mass spectrometer (Thermo Fisher Scientific, San Jose, Calif.) equipped with an Advion nanomate ESI source (Advion, Ithaca, N.Y.), following ZipTip (Millipore, Billerica, Mass.) C18 sample clean-up according to the manufacturer's instructions. Peptides were eluted from a C18 precolumn (100-μm id×2 cm, Thermo Fisher Scientific) onto an analytical column (75-μm ID×10 cm, C18, Thermo Fisher Scientific) using a 5-20% gradient of solvent B (acetonitrile, 0.1% formic acid) over 65 minutes, followed by a 20-35% gradient of solvent B over 25 minutes, all at a flow rate of 400 nl/min. Solvent A consisted of water and 0.1% formic acid. Data dependent scanning was performed by the Xcalibur v 2.1.0 software (Andon et al., 2002) using a survey mass scan at 60,000 resolution in the Orbitrap analyzer scanning m/z 350-1600, followed by collision-induced dissociation (CID) tandem mass spectrometry (MS/MS) of the fourteen most intense ions in the linear ion trap analyzer. […]

T1 sequence (P00747 20-810 limits assumed): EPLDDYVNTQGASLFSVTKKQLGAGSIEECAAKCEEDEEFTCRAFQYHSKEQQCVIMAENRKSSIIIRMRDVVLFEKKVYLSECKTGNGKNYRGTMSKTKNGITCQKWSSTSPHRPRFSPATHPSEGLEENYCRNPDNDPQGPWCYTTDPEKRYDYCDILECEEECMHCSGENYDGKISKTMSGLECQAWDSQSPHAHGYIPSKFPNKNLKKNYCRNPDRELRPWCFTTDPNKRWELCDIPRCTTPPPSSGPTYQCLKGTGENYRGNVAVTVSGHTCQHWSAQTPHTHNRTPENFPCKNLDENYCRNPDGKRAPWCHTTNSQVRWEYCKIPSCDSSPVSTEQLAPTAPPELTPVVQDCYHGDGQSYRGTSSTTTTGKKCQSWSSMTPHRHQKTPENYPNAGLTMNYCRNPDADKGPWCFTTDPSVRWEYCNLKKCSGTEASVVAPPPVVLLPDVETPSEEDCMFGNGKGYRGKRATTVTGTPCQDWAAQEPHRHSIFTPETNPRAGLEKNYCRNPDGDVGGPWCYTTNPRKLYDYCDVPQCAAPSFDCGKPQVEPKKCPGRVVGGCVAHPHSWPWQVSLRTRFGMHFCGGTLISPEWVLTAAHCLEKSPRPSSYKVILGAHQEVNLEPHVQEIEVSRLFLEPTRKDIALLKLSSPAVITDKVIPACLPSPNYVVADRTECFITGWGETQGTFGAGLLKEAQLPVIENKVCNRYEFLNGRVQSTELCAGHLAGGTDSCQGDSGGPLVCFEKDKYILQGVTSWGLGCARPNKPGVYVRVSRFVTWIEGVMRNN

SMILES: CC(=O)C=O [MG, Methylglyoxal]
- Modifications (plasminogen site 43): MG-HI
- Modifications (plasminogen site 61): MG-DH; also recorded: MG-HI
- Modifications (plasminogen site 68): MG-DH; also recorded: MG-HI
- Modifications (plasminogen site 70): MG-DH; also recorded: MG-HI
- Modifications (plasminogen site 115): MG-HI
- Modifications (plasminogen site 117): MG-HI; also recorded: MG-DH
- Modifications (plasminogen site 134): MG-DH
- Modifications (plasminogen site 220): MG-DH; also recorded: MG-HI
- Modifications (plasminogen site 223): MG-HI
- Modifications (plasminogen site 234): MG-DH
- Modifications (plasminogen site 242): MG-DH; also recorded: MG-HI
- Modifications (plasminogen site 265): MG-DH; also recorded: MG-HI
- Modifications (plasminogen site 290): MG-HI
- Modifications (plasminogen site 312): MG-DH; also recorded: MG-HI
- Modifications (plasminogen site 324): MG-HI; also recorded: MG-DH
- Modifications (plasminogen site 389): MG-HI; also recorded: MG-DH
- Modifications (plasminogen site 474): MG-HI; also recorded: MG-DH
- Modifications (plasminogen site 493): MG-HI; also recorded: MG-DH
- Modifications (plasminogen site 504): MG-HI; also recorded: MG-DH
- Modifications (plasminogen site 530): MG-HI; also recorded: MG-DH
- Modifications (plasminogen site 561): MG-HI; also recorded: MG-DH
- Modifications (plasminogen site 582): MG-HI; also recorded: MG-DH
- Modifications (plasminogen site 644): MG-HI
- Modifications (plasminogen site 712): MG-DH; also recorded: MG-HI
- Modifications (plasminogen site 767): MG-HI; also recorded: MG-DH
- Modifications (plasminogen site 779): MG-HI; also recorded: MG-DH
- Modifications (plasminogen site 789): MG-HI; also recorded: MG-DH
- Modifications (plasminogen sites 115/117 on one peptide, two adducts): MG-HI;; also recorded: MG-HI; also recorded: MG-DH;; also recorded: MG-DH
- Modifications (plasminogen sites 220/223 on one peptide, two adducts): MG-HI;; also recorded: MG-DH; also recorded: MG-HI; also recorded: MG-DH;
- Modifications (plasminogen sites 312/324 on one peptide, two adducts): MG-DH;; also recorded: MG-HI; also recorded: MG-DH; also recorded: MG-HI;
- Modifications (plasminogen sites 474/493 on one peptide, two adducts): MG-DH;; also recorded: MG-HI; also recorded: MG-HI;
- Modifications (plasminogen sites 489/504 on one peptide, two adducts): MG-HI;; also recorded: MG-DH
- Modifications (plasminogen sites 779/789 on one peptide, two adducts): MG-HI;; also recorded: MG-DH; also recorded: MG-HI; also recorded: MG-DH;
- Spectra Observed (site 43, MG-HI, C(+57)EEDEEFTC(+57)RAFQYHSK): 1
- Spectra Observed (site 61, MG-DH, EQQC(+57)VIMAENRK): 3
- Spectra Observed (site 61, MG-HI, EQQC(+57)VIMAENRK): 4
- Spectra Observed (site 68, MG-DH, SSIIIRMR): 2
- Spectra Observed (site 68, MG-HI, KSSIIIRMR): 1
- Spectra Observed (site 70, MG-DH, M(+16)RDVVLFEK): 2
- Spectra Observed (site 70, MG-DH, MRDVVLFEK): 7
- Spectra Observed (site 70, MG-DH, MRDVVLFEKK): 2
- Spectra Observed (site 70, MG-HI, M(+16)RDVVLFEK): 4
- Spectra Observed (site 70, MG-HI, MRDVVLFEK): 4
- Spectra Observed (site 70, MG-HI, MRDVVLFEKK): 4
- Spectra Observed (site 115, MG-HI, WSST SPHRPR): 4
- Spectra Observed (site 117, MG-DH, WSSTSPHRPRFSPATHPSEGLEENYC(+57)R): 9
- Spectra Observed (site 117, MG-HI, WSSTSPHRPRFSPATHPSEGLEENYC(+57)R): 9
- Spectra Observed (site 134, MG-DH, FSPATHPSEGLEENYCRNPDNDPQGPWC(+57)YTTDPEKR): 1
- Spectra Observed (site 220, MG-DH, NPDRELRPWC(+57)FTTDPNK): 1
- Spectra Observed (site 220, MG-DH, NPDRELRPWC(+57)FTTDPNKR): 6
- Spectra Observed (site 220, MG-HI, NPDRELRPWC(+57)FTTDPNK): 5
- Spectra Observed (site 223, MG-HI, ELRPWC(+57)FTTDPNKR): 4
- Spectra Observed (site 223, MG-HI, NPDRELRPWC(+57)FTTDPNKR): 11
- Spectra Observed (site 234, MG-DH, RWELC(+57)DIPR0): 2
- Spectra Observed (site 242, MG-DH, WELC(+57)DIPRC(+57)TTPPPSSGPTYQC(+57)LK): 6
- Spectra Observed (site 242, MG-HI, WELC(+57)DIPRC(+57)TTPPPSSGPTYQC(+57)LK): 3
- Spectra Observed (site 265, MG-DH, GTGENYRGNVAVTVSGHTC(+57)QHWSAQTPHTHNR): 7
- Spectra Observed (site 265, MG-HI, GTGENYRGNVAVTVSGHTC(+57)QHWSAQTPHTHNR): 5
- Spectra Observed (site 290, MG-HI, GNVAVTVSGHTC(+57)QHWSAQTPHTHNRTPENFPC(+57)K, MH+ 3809.751): 12
- Spectra Observed (site 290, MG-HI, GNVAVTVSGHTC(+57)QHWSAQTPHTHNRTPENFPC(+57)K, MH+ 3827.75): 4

From patent publication US20190137505A1 (THE ARIZONA BOARD OF REGENTS ON BEHALF OF THE UNIVERSITY OF …, priority 2015, published 2019)
